Tests used:
[1] = molecular target: T1, human TP receptor (Homo sapiens, UniProt P21731); assay: Radioligand binding assay (3H-SQ29,548), human TP receptor; conditions: hTP receptor
T1 construct: expressed in transfected cells
T1 sequence (P21731 1-343): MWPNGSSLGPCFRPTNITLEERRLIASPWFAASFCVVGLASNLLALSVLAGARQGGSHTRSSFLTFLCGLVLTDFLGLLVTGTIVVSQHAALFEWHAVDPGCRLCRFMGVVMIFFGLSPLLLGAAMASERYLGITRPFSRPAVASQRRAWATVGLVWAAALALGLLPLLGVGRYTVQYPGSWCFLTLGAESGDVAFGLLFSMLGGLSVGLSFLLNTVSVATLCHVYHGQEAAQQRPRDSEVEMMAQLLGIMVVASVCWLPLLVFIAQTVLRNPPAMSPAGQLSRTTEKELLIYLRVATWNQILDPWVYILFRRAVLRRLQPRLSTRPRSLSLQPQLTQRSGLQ
Procedure: (§1) QBI-HEK 293A cells expressing human or mouse TxA2 (TP) receptor were grown as described previously and harvested in phosphate-buffered saline with 1 mM EDTA. The cell pellet was homogenized in a glass homogenizer in 20 mM Hepes, 1 mM EGTA, 0.5 mM DTT with protease inhibitor cocktail. The homogenate was initially centrifuged at 1000×g for 10 minutes at 8° C. to remove cell debris. The homogenate was then centrifuged in a Beckman L8-70M ultracentrifuge (Beckman-Coulter, Brea, Calif., USA) at 21,000 rpm for 30 minutes at 4° C., and the pellet was resuspended in 20 mM Hepes, 1 mM EGTA, 100 mM NaCl. Membrane preparations were normalized to protein level as determined with a BCA assay (ThermoFisher, Rockland, Ill.) and stored at −80° C.
(§2) Test antagonists were incubated at 10 different concentrations with 25 μg membrane and 25 nM ^3H-SQ29,548 (PerkinElmer, Waltham, Mass., USA) in 50 mM Tris, 4 mM CaCl2, 0.1% ascorbic acid pH 7.5 for 2 hours at 25° C. in 96-well polystyrene plates. Separation of bound from free radioligand was accomplished by rapid vacuum filtration onto 96-well GF/B filter plates (PerkinElmer, Waltham, Mass., USA). Filters were washed 8 times in 50 mM Tris, pH 6.9 and allowed to dry for 16 hours, Plates were sealed and filters dissolved in 50 μL Betaplate Scintillation fluid (PerkinElmer, Waltham, Mass., USA) and read on a scintillation counter. Data are presented as percent total binding as calculated by a minimum of 3 wells containing membrane and ^3H-SQ29,548 without antagonist.
(§3) Equilibrium dissociation constants (Kd), IC50, and Schild regression analyses was performed with GraphPad Prism software (GraphPad Software Inc., La Jolla, Calif., USA).
(§4) To facilitate the characterization of the new compounds, cell-based TP receptor functional assays were optimized. HEK293 clones have been produced that stably express the human (hTP) or mouse (mTP) TP receptor (a isoform), and treatment of these clones with I-BOP ([1S-[1α,2α(Z),3β(1E,3S*),4α]]-7-[3-[3-hydroxy-4-(4-iodophenoxy)-1-butenyl]-7-oxabicyclo[2.2.1]hept-2-yl]-5-heptenoic acid) results in increased production of inositol triphosphate (IP3) (Knezevic, et al., 1993, Blood 82:A156; Shenker, et al., 1991, J Biol Chem 266:9309-9313; Huang, et al., 2004, Cell Signal 16:521-533) which can be quantified by measuring the breakdown product, inositol monophosphates (IP1), using a commercial time-resolved fluorescence assay. […] A radioligand binding assay was also developed to allow for the determination of binding affinities of compounds at the hTP and mTP receptors.

[2] = molecular target: T2, mouse TP receptor (Mus musculus, UniProt P30987); assay: Radioligand binding assay (3H-SQ29,548), mouse TP receptor; conditions: mTP receptor
T2 construct: expressed in transfected cells
T2 sequence (P30987 1-341): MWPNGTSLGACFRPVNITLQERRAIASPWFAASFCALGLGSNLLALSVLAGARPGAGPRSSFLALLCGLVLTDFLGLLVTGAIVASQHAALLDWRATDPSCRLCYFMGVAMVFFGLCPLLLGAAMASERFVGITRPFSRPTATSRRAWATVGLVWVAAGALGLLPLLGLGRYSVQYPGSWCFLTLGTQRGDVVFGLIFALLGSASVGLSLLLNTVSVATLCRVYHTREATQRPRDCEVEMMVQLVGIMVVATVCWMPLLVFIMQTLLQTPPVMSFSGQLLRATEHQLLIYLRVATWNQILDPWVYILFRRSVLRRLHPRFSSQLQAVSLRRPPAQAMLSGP
Procedure: as §1, §2, §3, §4

[3] = molecular target: T1, human TP receptor; assay: IP1 functional HTRF assay, human TP receptor; assay type: cell-based; conditions: I-BOP stimulated IP1
Procedure: (§5) Functional activity of the TP receptor was measured by homogenous time-resolved fluorescence (HTRF) (IP-One Tb, Cisbio, Bedford, Mass., USA). QBI-HEK 293A (MP Biomedicals, Solon, Ohio, USA) cells were transfected with human TP receptor or mouse TP receptor cDNAs cloned into the pcDNA5/TO vector (Invitrogen, Carlsbad, Calif., USA), and stable transformants were selected. Cells were plated at 200,000 cells/mL in DMEM containing 4.5 g/L glucose (Invitrogen, Carlsbad, Calif., USA), 10% fetal bovine serum, L-glutamine, and penicillin/streptomycin into 384-well plates (Grenier Bio-One, Monroe, N.C., USA), followed by incubation for 16 hours at 37° C. with 5% CO2. Culture media was removed and cells were then incubated for 15 min at 37° C. with 5% CO2 in 10 mM Hepes, 1 mM CaCl2, 0.4 mM MgCl2, 4.2 mM KCl, 146 mM NaCl, 5.5 mM glucose, 50 mM LiCl, pH 7.4 (stimulation buffer) containing varying concentrations of test antagonist. I-BOP ([1S-[1α,2α(Z),3β(1E,3S*),4α]]-7-[3-[3-hydroxy-4-(4-iodophenoxy)-1-butenyl]-7-oxabicyclo[2.2.1]hept-2-yl]-5-heptenoic acid) (Cayman Chemicals, Ann Arbor, Mich., USA) was added at a final concentration of 1.6 nM in stimulation buffer and incubated for 1 hour at 37° C. with 5% CO2. […] Plates were then read on a Spectramax M5 microplate reader (Molecular Devices, Sunnyvale, Calif., USA). Data are expressed as the ratio of 665 nm/620 nm fluorescence. […]

[4] = molecular target: T2, mouse TP receptor; assay: IP1 functional HTRF assay, mouse TP receptor; assay type: cell-based; conditions: I-BOP stimulated IP1
Procedure: as §5

[5] = Pro-drug study: plasma levels of compound and carboxylic acid hydrolysis product (51280) by LC-MS/MS; assay type: in vivo; conditions: female mice, 5 mg/kg, 1 h after injection
Procedure: Ester and amide examples can serve as pro-drugs to release the potent carboxylic acid TP receptor antagonist CNDR-51280. Compounds in were administered at 5 mg/kg to female mice, and levels of the compound and the carboxylic acid hydrolysis product (51280) were evaluated by LC-MS/MS 1 h after injection (Table 3).

O=C(O)CCc1cccc2c1CCC(NS(=O)(=O)c1ccc(Cl)cc1)C2 (centres unmarked) [Compound 51280, 3-(6-(4-Chloroplienyistilfonamido)-5,6,7,8-tetrahydronaplithalen-1-yl)propanaic acid]
affinity for TP receptor [1]: high affinity | affinity for TP receptor [2]: high affinity | antagonist activity [3]: potent antagonist | antagonist activity [4]: potent antagonist | Plasma (compound) [5]: 10376 (+/− 3480) nM
